Converted amounts (≈) assume the structure as drawn. Read-outs that look alike come from different tables or passages of the source.
What was measured:
human α-glycoprotein = assay: Protein binding by isothermal titration microcalorimetry; details: 25° C.
Description: For comparison, similar experiments with some necessary modifications were performed using teicoplanin.
Teicoplanin was studied with human albumin and α-glycoprotein.
Integrated heat effects, after correction for heats of dilution, were analyzed by non-linear regression using a simple single-site binding model with the standard Microcal ORIGIN software package. Raw data (μcal/sec) for each injection were integrated to give the total heat effect per addition, then divided by amount of injectant to give kcal/mole of injectant. The same integration was applied for control dilution effects, and this was subtracted from the actual titration data. This provided a differential of the binding curve in which the extent of binding is proportional to the total heat liberated (or absorbed). This was then analyzed by non-linear regression methods in terms of various standard binding models. The simplest model assumes simple non-competitive binding equilibrium, and gives three parameters:

[1] = ESI mass spectroscopy of multimers in solution; format: physicochemical; details: ESI-MS
Description: Experiments were performed using an Applied Biosystem API III+ mass spectrometer equipped with a TurbolonSpray source, a Triple Quadrupole analyzer, operating in positive ion mode.
The mass spectra were obtained in electrospray positive mode on a Finnigan LCQ^Deca ion trap instrument previously tuned and calibrated in electrospray mode using Ultramark 1621, caffeine and MRFA (L-metionyl-arginyl-phenilalanyl-arginine).

[2] = test system: MSSA Staph. aureus Smith 819; assay: MIC (microbiological activity); format: cell-based; details: Staphylococcus aureus
gram positive bacteria = assay: MIC by broth microdilution (NCCLS), with or without 30% bovine serum (Example 19); format: cell-based
Description: (§1) The compounds were prepared according to the examples above and the methods described in U.S. Patent Application Publication No. 2004/0142883. Individual dalbavancin compounds were purified by HPLC. […] Before dissolution, each sample was analyzed by HPLC and quantified. […] Louis, Mo.), Gentamycin (GE) (Sigma Chemical Co., St. Louis, Mo.), Penicillin G (Pen.G) (Sigma Chemical Co., St. Louis, Mo.), and Amphotericin B (Amph.B) (Sigma Chemical Co., St. Louis, Mo.). The microorganisms used were reference strains obtained from the American Type Culture Collection (ATCC) (Rockville, Md.), SmithKline and French Laboratories (SKF), and the Upjohn Company (UC) (Kalamazoo, Mich.).

gram-negative bacteria [3] = assay: as above; format: cell-based
Description: as §1

[4] = test system: CR-BSI due to gram-positive bacterial pathogens; assay: Catheter-related blood stream infection (CR-BSI) trial: efficacy; format: in vivo, human; details: microbiological ITT population; dalbavancin 1000 mg day 1 + 500 mg day 8 IV; vancomycin 1000 mg IV every 12 hours
Excerpt: This study evaluated the safety and efficacy (clinical and microbiological) of a weekly dosing regimen of dalbavancin in the treatment of adults with catheter-related blood stream infection (CR-BSI) due to gram-positive bacterial pathogens, relative to the standard care of treatment, vancomycin.
Patients with CR-BSI due to suspected or known Gram-positive pathogen(s) who met the inclusion/exclusion criteria were randomized to one of two treatment arms in this open-label, comparative, multi-center study. Dalbavancin was administered once weekly in weekly dalbavancin and comparator (vancomycin) was administered daily in vancomycin. Catheter removal was required for patients with Staphylococcus aureus infection; catheter management was left to the Investigator's discretion for patients with coagulase-negative staphylococci (CoNS) infection. Efficacy was clinically based on the improvement or resolution of clinical signs and symptoms of CR-BSI such that no additional antibacterials were warranted, and microbiologically on the eradication or presence of the baseline or other pathogens. […]
Efficacy was evaluated based on clinical and microbiological responses.
For the primary efficacy analysis, 95% confidence intervals were also determined, and for prognostic factor analyses using the primary efficacy variable, logistic regression was used.

Candida albicans SKF2270 = assay: MIC by broth microdilution (NCCLS), IsoB0 and reference compounds; format: cell-based
gram-negative bacteria [5] = assay: as above; format: cell-based
Description: (§2) MICs were determined by the broth microdilution methodology following the standard NCCLS procedure, with or without 30% bovine serum, using bacterial inocula of approximately 5×10^5 CFU/mL. Tests were read after 20-24 h incubation at 35° C.

MRSA Staph. aureus 3817 = assay: MIC (microbiological activity); format: cell-based; details: Staphylococcus aureus
[6] = test system: Candida albicans SKF 2270; assay: MIC by broth microdilution (NCCLS), with or without 30% bovine serum (Example 19); format: cell-based; details: Candida albicans, SKF2270
Description: MICs were determined by the broth microdilution methodology following the standard NCCLS procedure (NCCLS Document M7-A6, Vol. 23, No. 2, “Methods for dilution antimicrobial susceptibility tests for bacteria that grow aerobically.” Approved Guideline. January 2003, which can be herein incorporated by reference in its entirety), with or without 30% adult bovine serum (BS) (PAA Laboratories GmBH, Haidmannweg Pasching Austria), using bacterial innocula at approximately 5×10^5 CFU/ml. The media employed included cation-adjusted Müller Hinton broth (Difco Laboratories, Detroit, Mich.) that was used that was adjusted with CaCl2 and MgCl2 to a final concentration of 20 mg/L and 10 mg/L, respectively. Tests were read following 20-24 hours of incubation at 35° C.

gram-positive bacteria = assay: MIC by broth microdilution (NCCLS), IsoB0 and reference compounds; format: cell-based
Description: Müller Hinton broth (Difco Laboratories, Detroit, Mich., USA) adjusted with CaCl2 and MgCl2 to a final concentrations of 20 mg/L and 10 mg/L respectively.
Adult bovine serum (BS) (batch A05123-159 PAA Laboratories GmBH Haidmannweg Pasching Austria).
The microorganisms used are reference standard strains from the American Type Culture Collection (ATCC, Rockville, USA), Smith Kline and French Laboratories (SKF) and the Upjohn Company (UC, Kalamazoo, Mich., USA).
as §2

[7] = Enterococcus faecalis, ATCC7080
[8] = Enterococcus faecalis, ATCC29212
[9] = Staphylococcus aureus, ATCC19636
[10] = Staphylococcus aureus, ATCC29213
[11] = Staphylococcus epidermidis, ATCC12228

For teicoplanin, the “apparent binding affinity Ka, α-glycoprotein” value (human α-glycoprotein) was 0.07 (±0.01) × 10^5M^−1 and the multimers in solution [1] was “does not show multimeric complexes”.

Molecule `CN[C@H](CC(C)C)C(=O)N[C@H]1C(=O)N[C@@H](CC(N)=O)C(=O)N[C@H]2C(=O)N[C@H]3C(=O)N[C@H](C(=O)N[C@H](C(=O)O)c4cc(O)cc(O)c4-c4cc3ccc4O)[C@H](O)c3ccc(c(Cl)c3)Oc3cc2cc(c3O[C@@H]2O[C@H](CO)[C@@H](O)[C@H](O)[C@H]2O[C@H]2C[C@](C)(N)[C@H](O)[C@H](C)O2)Oc2ccc(cc2Cl)[C@H]1O` [Vancomycin, vancomycin, reference compound] has an MIC [2] of 0.5 µg/mL (≈ 0.345 µM), an MIC (gram positive bacteria) of 1 µg/mL (≈ 0.69 µM) and an MIC (gram positive bacteria; [7]) of 1 µg/mL (≈ 0.69 µM). The MIC (gram positive bacteria; [8]) was 2 µg/mL (≈ 1.38 µM), the MIC (gram positive bacteria; [9]) was 1 µg/mL (≈ 0.69 µM) and the MIC (gram positive bacteria; [10]) was 2 µg/mL (≈ 1.38 µM). For the same molecule, the MIC (gram positive bacteria; [11]) was 2 µg/mL (≈ 1.38 µM), the MIC (gram positive bacteria; Streptococcus pneumoniae, UC41) was 0.5 µg/mL (≈ 0.345 µM) and the MIC (gram-negative bacteria [3]) was over 128 µg/mL. The MIC (gram-negative bacteria [3]; Escherichia coli) was over 128 µg/mL, the MIC (gram-negative bacteria [3]; Escherichia coli, ATCC25922) was over 128 µg/mL and the MIC (gram-negative bacteria [3]; Proteus vulgaris, ATCC881) was over 128 µg/mL. For the same molecule, the “overall response success rate at TOC” value [4] was 50.0%, the MIC (Candida albicans SKF2270) was over 128 µg/mL and the MIC (gram-negative bacteria [5]) was over 128 µg/mL. It also gave an MIC (gram-negative bacteria [5]; Escherichia coli) of over 128 µg/mL, an MIC (gram-negative bacteria [5]; Escherichia coli, ATCC25922) of over 128 µg/mL and an MIC (gram-negative bacteria [5]; Proteus vulgaris, ATCC881) of over 128 µg/mL. For the same molecule, the MIC (MRSA Staph. aureus 3817) was 0.5 µg/mL (≈ 0.345 µM), the MIC [6] was over 128 µg/mL and the MIC (gram-positive bacteria; [7]) was 1 µg/mL (≈ 0.69 µM). The MIC (gram-positive bacteria; [8]) was 2 µg/mL (≈ 1.38 µM), the MIC (gram-positive bacteria; [9]) was 1 µg/mL (≈ 0.69 µM) and the MIC (gram-positive bacteria; [10]) was 2 µg/mL (≈ 1.38 µM). For the same molecule, the MIC (gram-positive bacteria; [11]) was 2 µg/mL (≈ 1.38 µM), the MIC (gram-positive bacteria; Streptococcus pneumoniae, UC41) was 0.5 µg/mL (≈ 0.345 µM) and the MIC (gram-positive bacteria; Streptococcus pyogenes) was 1 µg/mL (≈ 0.69 µM).
